Measured values published in patent EP2998292A1, “Naphthyl sulfonamide derivatives as KEAP-1 modulators for the treatment of diabetes, obesity, dyslipidemia and related disorders” (SANOFI, priority 2014, dated 2016).

Biological target: T1, human Keap1 kelch domain (amino acids Ala321-Thr609) (Homo sapiens, UniProt Q14145)
T1 construct: human Keap1 kelch domain (amino acids Ala321-Thr609)
Experiment: Keap1-Nrf2 peptide binding assay (fluorescence polarisation)
Conditions: binding of Keap1 kelch domain (20 nM) to fluorescently labeled Nrf2 peptide Alexa633-AFFAQLQLDEETGEFL (50 nM); ambient temperature
Experimental: Keap1-Nrf2 peptide binding assay
A fluorescence polarisation assay was used to measure binding of the human Keap1 kelch domain (amino acids Ala321-Thr609) to a fluorescently labeled peptide containing a Keap1 binding site of human Nrf2 (Alexa633-AFFAQLQLDEETGEFL; JPT Technologies, Berlin, Germany). Two microliters of test compound in reaction buffer (phosphate-buffered saline, 2 mM DL-dithiothreitol, 0.015 % (v/v) Brij-35) containing 6 % (v/v) DMSO were mixed with two microliters of the Keap1 kelch domain in reaction buffer in a black 384-well small volume microtiter plate and incubated at ambient temperature for 15 minutes. Thereafter, two microliters were added of the fluorescently labeled Nrf2 peptide in reaction buffer, and the mixture was incubated for a further 30 minutes at ambient temperature. Final concentrations of the Keap1 kelch domain and the fluorescently labeled Nrf2 peptide were 20 nM and 50 nM, respectively. Fluorescence polarization (FP) was measured at excitation and emission wavelengths of 635 nm and 660 nm, respectively. Positive controls for binding (two microliters of reaction buffer containing 6 % (v/v) DMSO instead of test compound in the same buffer) and negative controls (as positive controls, but without Keap1 kelch domain) were included on each microtiter plate. Data were expressed as percent-inhibition values: percent inhibition = 100⋅(1-(|FPcompound-FPnegative control|)/(|FPpositive control-FPnegative control|)) [formula]
IC50 values were determined by testing different compound concentrations and fitting the resulting percent-inhibition values to the following equation using XLFit4: percent inhibition = A + (B-A)/(1 + (((IC50)/([Compound])))^D) [formula]
Parameter A was set to zero, pre-fit values for parameters B and D were set to 100 and 1, respectively.

T1 sequence (Q14145 321-609): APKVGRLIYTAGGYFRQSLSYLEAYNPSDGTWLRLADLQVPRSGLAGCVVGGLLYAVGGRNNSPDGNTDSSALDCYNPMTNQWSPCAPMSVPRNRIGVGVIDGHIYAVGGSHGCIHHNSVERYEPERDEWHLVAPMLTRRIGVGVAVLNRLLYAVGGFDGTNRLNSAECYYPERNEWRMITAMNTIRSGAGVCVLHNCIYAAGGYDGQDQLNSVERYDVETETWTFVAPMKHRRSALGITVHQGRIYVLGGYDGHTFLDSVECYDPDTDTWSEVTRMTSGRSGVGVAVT

| Compound | IC50 |
| --- | --- |
| 1-[4-[(5-chloro-1,3-dimethyl-pyrazol-4-yl)sulfonylamino]-2-naphthyl]piperidine-3-carboxylic acid; 2,2,2-trifluoroacetic acid [Example 11] | 26.7 µM |
| CCCCCC(CC(=O)O)c1cc(NS(=O)(=O)c2c(C)c(C)cc(C)c2C)c2ccccc2c1 (stereo not shown) [Example 1, 3-[4-[(2,3,5,6-tetramethylphenyl)sulfonylamino]-2-naphthyl]octanoic acid] | 13 µM |
| Cc1cc(C)c(C)c(S(=O)(=O)Nc2cc(C3CCCC3C(=O)O)cc3ccccc23)c1C (stereo not shown) [Example 3, 2-[4-[(2,3,5,6-tetramethylphenyl)sulfonylamino]-2-naphthyl]cyclopentaneca rboxylic acid] | 5.2 µM |
| Cc1cc(C)c(C)c(S(=O)(=O)Nc2cc(C(CC(=O)O)c3ccccc3)cc3ccccc23)c1C (stereo not shown) [Example 4, 3-phenyl-3-[4-[(2,3,5,6-tetramethylphenyl)sulfonylamino]-2-naphthyl]propanoic acid] | 14.4 µM |
| CCCCCC(Oc1cc(NS(=O)(=O)c2c(C)c(C)cc(C)c2C)c2ccccc2c1)C(=O)O (stereo not shown) [Example 5, 2-[[4-[(2,3,5,6-tetramethylphenyl)sulfonylamino]-2-naphthyl]oxy]heptanoic acid] | 3.3 µM |
| Cc1cc(C)c(C)c(S(=O)(=O)Nc2cc(C3=CCC(C(=O)O)CC3)cc3ccccc23)c1C (stereo not shown) [Example 9, 4-[4-[(2,3,5,6-tetramethylphenyl)sulfonylamino]-2-naphthyl]cyclohex-3-ene-1-carboxylic acid] | 2.9 µM |
| Cc1cc(C)c(C)c(S(=O)(=O)Nc2cc(CC(C(=O)O)C(F)(F)F)cc3ccccc23)c1C (stereo not shown) [Example 10, 3,3,3-trifluoro-2-[[4-[(2,3,5,6-tetramethylphenyl)sulfonylamino]-2-naphthyl]methyl]propanoi c acid] | 15.7 µM |
| Cc1cc(C)c(C)c(S(=O)(=O)Nc2cc(N3CCCC(C(=O)O)C3)cc3ccccc23)c1C (stereo not shown) [Example 12, 1-[4-[(2,3,5,6-tetramethylphenyl)sulfonylamino]-2-naphthyl]piperidine-3-carboxylic acid; 2,2,2-trifluoroacetic acid] | 8.6 µM |
| Cc1cc(C)c(C)c(S(=O)(=O)Nc2ccc(C(CC(=O)O)c3ccccc3)c3ccccc23)c1C (stereo not shown) [Example 13, 3-phenyl-3-[4-[(2,3,5,6-tetramethylphenyl)sulfonylamino]-1-naphthyl]propanoic acid] | 6.5 µM |
| Cc1cc(C)c(C)c(S(=O)(=O)Nc2ccc(CC(C(=O)O)c3cccc(C(F)(F)F)c3)c3ccccc23)c1C (stereo not shown) [Example 14, 3-[4-[(2,3,5,6-tetra-methylphenyl)sulfonylamino]-1-naphthyl]-2-[3-(trifluoromethyl)phenyl]pr opanoic acid] | 4 µM |
